Molecules are shown by their SMILES. A value given as a limit tells only on which side of the number the result lay.

For the experiment, the target named is T1, hPARG (Homo sapiens, UniProt Q86W56).
T1 construct: made in house; host or cells: E. coli
T1 sequence (Q86W56 whole entry): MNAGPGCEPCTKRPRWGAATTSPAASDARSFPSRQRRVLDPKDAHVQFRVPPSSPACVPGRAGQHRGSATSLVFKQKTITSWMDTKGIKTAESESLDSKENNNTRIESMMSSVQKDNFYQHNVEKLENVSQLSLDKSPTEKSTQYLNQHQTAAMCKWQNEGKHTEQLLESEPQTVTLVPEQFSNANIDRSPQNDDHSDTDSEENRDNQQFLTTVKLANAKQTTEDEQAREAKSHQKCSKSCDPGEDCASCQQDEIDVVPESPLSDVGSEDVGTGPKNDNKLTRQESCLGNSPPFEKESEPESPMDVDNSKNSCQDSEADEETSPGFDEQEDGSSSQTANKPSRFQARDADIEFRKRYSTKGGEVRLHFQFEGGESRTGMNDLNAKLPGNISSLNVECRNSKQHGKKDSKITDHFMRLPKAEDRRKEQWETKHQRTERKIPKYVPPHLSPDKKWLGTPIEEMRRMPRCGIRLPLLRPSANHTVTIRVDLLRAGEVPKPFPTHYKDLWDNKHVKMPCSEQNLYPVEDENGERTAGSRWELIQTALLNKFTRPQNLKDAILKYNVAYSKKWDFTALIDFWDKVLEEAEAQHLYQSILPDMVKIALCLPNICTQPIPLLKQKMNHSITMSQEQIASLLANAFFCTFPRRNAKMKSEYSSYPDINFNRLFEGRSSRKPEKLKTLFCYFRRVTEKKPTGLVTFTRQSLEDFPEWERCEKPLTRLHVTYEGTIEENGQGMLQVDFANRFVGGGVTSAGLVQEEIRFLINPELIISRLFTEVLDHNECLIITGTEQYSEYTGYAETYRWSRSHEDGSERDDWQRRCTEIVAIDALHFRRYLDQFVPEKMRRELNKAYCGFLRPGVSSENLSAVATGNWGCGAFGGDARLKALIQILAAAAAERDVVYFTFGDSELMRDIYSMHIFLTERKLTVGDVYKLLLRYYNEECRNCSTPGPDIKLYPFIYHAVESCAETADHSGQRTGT
As to the kind of experiment: PARG enzymatic activity assay (HTRF). The class given is biochemical. The settings on record: C-terminal His6-tag hPARG 65 pM, biotinylated-NAD ribosylated PARP1 substrate 8 nM. The gist of the method: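 His6-tagged hPARG from E. coli (65 pM final) preincubated 60 min RT with compound (10-point 4-fold dilution), then 8 nM biotinylated NAD-ribosylated PARP1 added for 10 min RT in Tris pH 7.4 buffer with EDTA, EGTA, DTT, KCl. HTRF detection (Eu-streptavidin/anti-His XL665, 620/665 nm); IC50 from 4-parameter fit against DMSO and no-enzyme controls.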
Usually IC50 stands for the concentration at which inhibition is half-maximal. In turn, `CN1C[C@H]2C[C@@H]1CN2c1ncnc2c1c1ccc(S(=O)(=O)NC3(C#N)CC3)cc1n2-c1nnc(C(F)F)s1` [Example 30, N-(1-Cyanocyclopropyl)-9-(5-(difluoromethyl)-1,3,4-thiadiazol-2-yl)-4-((1R,4R)-5-methyl-2,5-diazabicyclo[2.2.1]heptan-2-yl)-9H-pyrimido[4,5-b]indole-7-sulfonamide] came in with an IC50 not above 0.1 µM.

The compound `CN(C[C@H]1COCCN1C)c1ncnc2c1c1ccc(S(=O)(=O)NC3(C#N)CC3)cc1n2-c1nnc(C(F)F)s1` [Example 66, (S)-N-(1-Cyanocyclopropyl)-9-(5-(difluoromethyl)-1,3,4-thiadiazol-2-yl)-4-(methyl((4-methylmorpholin-3-yl)methyl)amino)-9H-pyrimido[4,5-b]indole-7-sulfonamide] yielded an IC50 not above 0.1 µM. `CCc1cnc2n1CCN(c1ncnc3c1c1ccc(S(=O)(=O)NC4(C#N)CC4)cc1n3-c1nnc(C(F)F)s1)C2` [Example 54, N-(1-Cyanocyclopropyl)-9-(5-(difluoromethyl)-1,3,4-thiadiazol-2-yl)-4-(3-ethyl-5,6-dihydroimidazo[1,2-a]pyrazin-7(8H)-yl)-9H-pyrimido[4,5-b]indole-7-sulfonamide] had an IC50 not above 0.1 µM.

For `CN(CCN1CCC(F)(F)CC1)c1ncnc2c1c1ccc(S(=O)(=O)NC3(C#N)CC3)cc1n2-c1nnc(C(F)F)s1` [Example 77, N-(1-Cyanocyclopropyl)-9-(5-(difluoromethyl)-1,3,4-thiadiazol-2-yl)-4-((2-(4,4-difluoropiperidin-1-yl)ethyl)(methyl)amino)-9H-pyrimido[4,5-b]indole-7-sulfonamide], the IC50 is 0.1 to 1 µM. With `CCN(CC)CCOc1ncnc2c1c1ccc(S(=O)(=O)NC3(C#N)CC3)cc1n2-c1nnc(C(F)F)s1` [Example 10, N-(1-Cyanocyclopropyl)-4-(2-(diethylamino)ethoxy)-9-(5-(difluoromethyl)-1,3,4-thiadiazol-2-yl)-9H-pyrimido[4,5-b]indole-7-sulfonamide], the IC50 was not above 0.1 µM. Consider `CN(CCO)c1ncnc2c1c1ccc(S(=O)(=O)NC3(C#N)CC3)cc1n2-c1nnc(C(F)F)s1` [Example 63, N-(1-Cyanocyclopropyl)-9-(5-(difluoromethyl)-1,3,4-thiadiazol-2-yl)-4-((2-hydroxyethyl)(methyl)amino)-9H-pyrimido[4,5-b]indole-7-sulfonamide], for which the IC50 is not above 0.1 µM. Regarding `Cc1nc2n(n1)CCN(c1ncnc3c1c1ccc(S(=O)(=O)NC4(C#N)CC4)cc1n3-c1nnc(C(F)F)s1)C2` [Example 55, N-(1-Cyanocyclopropyl)-9-(5-(difluoromethyl)-1,3,4-thiadiazol-2-yl)-4-(2-methyl-5,6-dihydro-[1,2,4]triazolo[1,5-a]pyrazin-7(8H)-yl)-9H-pyrimido[4,5-b]indole-7-sulfonamide], the IC50 is not above 0.1 µM. `CN(CC1(C#N)CC1)c1ncnc2c1c1ccc(S(=O)(=O)NC3(C#N)CC3)cc1n2-c1nnc(C(F)F)s1` [Example 75, N-(1-Cyanocyclopropyl)-4-(((1-cyanocyclopropyl)methyl)(methyl)amino)-9-(5-(difluoromethyl)-1,3,4-thiadiazol-2-yl)-9H-pyrimido[4,5-b]indole-7-sulfonamide] gave an IC50 not above 0.1 µM. Take `CN(C)c1ncnc2c1c1ccc(S(=O)(=O)NC3(C#N)CC3)cc1n2-c1nnc(C(F)F)s1` [Example 14, N-(1-Cyanocyclopropyl)-9-(5-(difluoromethyl)-1,3,4-thiadiazol-2-yl)-4-(dimethylamino)-9H-pyrimido[4,5-b]indole-7-sulfonamide]: the IC50 was not above 0.1 µM. Turning to `N#CC1(NS(=O)(=O)c2ccc3c4c(C#CCN5CCOCC5)ncnc4n(-c4nnc(C(F)F)s4)c3c2)CC1` [Example 86, N-(1-Cyanocyclopropyl)-9-(5-(difluoromethyl)-1,3,4-thiadiazol-2-yl)-4-(3-morpholinoprop-1-yn-1-yl)-9H-pyrimido[4,5-b]indole-7-sulfonamide], the IC50 is not above 0.1 µM. On to `CN(CC1CCCN1C)c1ncnc2c1c1ccc(S(=O)(=O)NC3(C#N)CC3)cc1n2-c1nnc(C(F)F)s1` (stereo not drawn) [Example 80, N-(1-Cyanocyclopropyl)-9-(5-(difluoromethyl)-1,3,4-thiadiazol-2-yl)-4-(methyl((1-methylpyrrolidin-2-yl)methyl)amino)-9H-pyrimido[4,5-b]indole-7-sulfonamide], for which the IC50 was not above 0.1 µM. Under `CCN1CCC2CN(c3ncnc4c3c3ccc(S(=O)(=O)NC5(C#N)CC5)cc3n4-c3nnc(C(F)F)s3)CCC21` (stereo not drawn) [Example 38, N-(1-Cyanocyclopropyl)-9-(5-(difluoromethyl)-1,3,4-thiadiazol-2-yl)-4-(1-ethyloctahydro-5H-pyrrolo[3,2-c]pyridin-5-yl)-9H-pyrimido[4,5-b]indole-7-sulfonamide] stands not above 0.1 µM; under `N#CC1(NS(=O)(=O)c2ccc3c4c(OCC5CCOC5)ncnc4n(-c4nnc(C(F)F)s4)c3c2)CC1` (stereo not drawn) [Example 9, N-(1-Cyanocyclopropyl)-9-(5-(difluoromethyl)-1,3,4-thiadiazol-2-yl)-4-((tetrahydrofuran-3-yl)methoxy)-9H-pyrimido[4,5-b]indole-7-sulfonamide], not above 0.1 µM. As to `CN(C)C(=O)N1CCN(CCOc2ncnc3c2c2ccc(S(=O)(=O)NC4(C#N)CC4)cc2n3-c2nnc(C(F)F)s2)CC1` [Example 5, 4-(2-((7-(N-(1-Cyanocyclopropyl)sulfamoyl)-9-(5-(difluoromethyl)-1,3,4-thiadiazol-2-yl)-9H-pyrimido[4,5-b]indol-4-yl)oxy)ethyl)-N,N-dimethylpiperazine-1-carboxamide], the IC50 is not above 0.1 µM. Consider `CCN(CC)[C@@H]1CCN(c2ncnc3c2c2ccc(S(=O)(=O)NC4(C#N)CC4)cc2n3-c2nnc(C(F)F)s2)C[C@@H]1OC` [Example 50, N-(1-Cyanocyclopropyl)-4-((3S,4R)-4-(diethylamino)-3-methoxypiperidin-1-yl)-9-(5-(difluoromethyl)-1,3,4-thiadiazol-2-yl)-9H-pyrimido[4,5-b]indole-7-sulfonamide], for which the IC50 was not above 0.1 µM. Consider `CC(C)(O)CCc1ncnc2c1c1ccc(S(=O)(=O)NC3(C#N)CC3)cc1n2-c1nnc(C(F)F)s1` [Example 89, N-(1-Cyanocyclopropyl)-9-(5-(difluoromethyl)-1,3,4-thiadiazol-2-yl)-4-(3-hydroxy-3-methylbutyl)-9H-pyrimido[4,5-b]indole-7-sulfonamide], for which the IC50 was 0.1 to 1 µM. On to `CN(C)CCN(C)c1ncnc2c1c1ccc(S(=O)(=O)NC3(C#N)CC3)cc1n2-c1nnc(C(F)F)s1` [Example 62, N-(1-Cyanocyclopropyl)-9-(5-(difluoromethyl)-1,3,4-thiadiazol-2-yl)-4-((2-(dimethylamino)ethyl)(methyl)amino)-9H-pyrimido[4,5-b]indole-7-sulfonamide], for which the IC50 is not above 0.1 µM. In turn, `C[C@@H]1CCCN(c2ncnc3c2c2ccc(S(=O)(=O)NC4(C#N)CC4)cc2n3-c2nnc(C(F)F)s2)C1` [Example 81, (R)-N-(1-Cyanocyclopropyl)-9-(5-(difluoromethyl)-1,3,4-thiadiazol-2-yl)-4-(3-methylpiperidin-1-yl)-9H-pyrimido[4,5-b]indole-7-sulfonamide] gave an IC50 not above 0.1 µM.

(Values after patent publication US20260049088A1, “TRICYCLIC HETEROCYCLIC DERIVATIVES, COMPOSITIONS AND USES THEREOF” (Danatlas Pharmaceuticals Co., Ltd., priority 2023, published 2026).)
